This is an account of results in patent US8268831B2, “Compounds derived from 2-(3-methylenedioxy)-benzoyl indol” (Biolab Sanus Farmaceutica Ltda., priority 2008, dated 2012).

pEC50: −log10 of the molar value.

Assay [1] relates to isolated cavernous body of rabbit. In words: Relaxing effect on isolated cavernous body of rabbit pre-contracted with phenylephrine. Type of assay: cell-based. The conditions noted are these: cumulative concentrations 1 to 1000 nM. As to the method:
Experiments used male rabbits weighing between 3.5 and 4.0 Kg. The animals were anesthetized with sodium pentobarbital (40 mg/kg, i.p), and the abdominal cavity opened for the withdrawal of the penis from the animals. The tissues were placed in a Petri dish containing Krebs-Henseleit solution pH 7.4 (NaCl 118 mM; KCl 4.8 mM; CaCl2 2.5 mM; MgSO4 1.2 mM; KH2PO4 0.9 mM; NaHCO3 25 mM; glucose 11 mM) warmed to 37° C., and cartilage and adherent tissue were carefully removed. In general 3 segments containing approximately 2 cm of length of cavernous body were obtained from each animal. The preparations were mounted on glass reservoirs containing 5 ml of Krebs solution containing indomethacin (5.6 μM) at 37° C., continuously aerated with a mixture of 95% of O2 and 5% of CO2.
The preparations were submitted to a period of equilibrium of at least 90 minutes, under tension of 2 g, during which the bath solution was renewed each 15 minutes. Changes of isometric tension were registered using a TRI-201 force transducer (Letica Scientific Instruments, Spain) connected a polygraph.
After the period of stabilization, the preparations were treated with single concentrations of […] of phenylephrine. […]
The relaxation responses caused by the compounds were calculated in relation to the contractile response of phenylephrine, which is considered as 100% of contraction. […]

For a further assay, the system named is isolated aorta of rat. As to the kind of experiment: Relaxing effect on isolated rat aorta rings pre-contracted with phenylephrine. The conditions noted are these: rat aorta with endothelium previously treated with phenylephrine; cumulative concentrations 1 to 1000 nM; FIG. 2. Type of assay: cell-based. As to the method:
Experiments used male Wistar rats weighing between 300-350 g. The animals were maintained in an environment with humidity (60-80%) and controlled temperature (22±2° C.), with light-dark cycles of 12 hours and free access to water and rations. Before experiments, the animals were acclimatized in the laboratory for a minimum period of 1 hour. Each animal was used only one time in each test.
The animals were sacrificed by deepening anesthesia with ketamine and xylazine hydrochloride, followed by exsanguination made by section of the carotid artery. After opening of the thoracic cavity, the aorta was carefully removed and transferred to a Petri dish containing Krebs-Henseleit solution, with the following composition (mM): NaCI-118; KCl 4.7; CaCl2 2.5; MgSO4 1.2; KH2PO4 0.9; NaHCO3 25; glucose 11. Afterwards, adipose and adjacent connective tissues were carefully removed. […]
After a period of equilibrium of 60 minutes, the preparations were treated with phenylephrine (0.3-1 μM), and after stabilization of the tonic contraction of the preparation, the integrity of the vascular endothelium was evaluated by the capacity of acetylcholine (ACh, 1 μM) to induce relaxation in the preparations. […]

For assay [2], the system named is spontaneous erections in male rats. As to the kind of experiment: Test of sexual behavior in rats (spontaneous erections) after oral administration. The class given is in vivo, rat. The conditions noted are these: 10 mg/kg oral, observed for 1 hour in presence of females, significantly increased compared to vehicle, average±SEM, FIG. 3. As to the method: The utilized protocol was adapted from literature articles (Hosseinzadeh et al., 2008; Rizzo et al., 2008). Two days before execution of experiments, couples of males and females were isolated in plastic boxes. In this period, males were housed for 1 hour per day in reinforced metal cages, rectangular with dimensions of 40×23×33 cm. On the day of the test, the male rats were treated with 10 mg/kg (oral) of compound BL-122 or only with vehicle (saline containing 10% of DMSO). Immediately afterwards, animals were placed in observation cages. The rats that received treatment by oral route were fasted for 4 hours before the test. One and a half (1.5) hours after the oral treatment, the females were placed with the respective males in the cages.

As usually defined, the pEC50 is the EC50 on a negative log10 scale, so that one unit is a factor of ten. `CN1CC(=O)N[C@H](Cc2c(C(=O)c3ccc4c(c3)OCO4)[nH]c3ccccc23)C1=O` [Compound BL-122, (R)-3-((2-(benzo[d][1,3]dioxol-5-carbonyl)-1H-indol-3-yl)methyl)-1-methylpiperazine-2,5-dione]: the pEC50 in assay [1] (Oryctolagus cuniculus, cavernous body of rabbit previously contracted with phenylephrine, value with interval in brackets) is 7.80. Moreover, the “maximum relaxation (efficacy)” value in assay [1] (cavernous body of rabbit previously contracted with phenylephrine (contraction = 100%), average±SEM) came out at 63.1±7.8%. Moreover, the “relaxation of rat aorta preparations” value in the assay with isolated aorta of rat is reported as “promoted relaxation”. For the same compound, the spontaneous erections result in assay [2] is reported as “about 6.4±2.0”.
